Source: patent US11234954B2, “Low-dose doxepin for treatment of sleep disorders in elderly patients” (Pernix Sleep, Inc., priority 2006, dated 2022)
Like-named read-outs stand apart in the source and are kept apart here.

Assays:
[1] = system: primary elderly insomnia patients with sleep maintenance difficulties; assay: Clinical Global Impressions (CGI), Phase III elderly study (Example 2); format: in vivo, human
Procedure: Subjective Variables: Subjective efficacy variables were subjective TST (sTST), subjective WASO (sWASO), LSO, subjective NAASO (sNAASO), and sleep quality. These variable were assessed using a questionnaire completed in the morning following each PSG recording night. Drowsiness, ability to function, and total nap time during the day were assessed using an evening questionnaire completed prior to PSG recording at Nights −6, −5, 1, 15, 29, 57, and 85. Other secondary subjective efficacy variables included the 2-item Clinical Global Impressions (CGI) scale for severity of illness and therapeutic effect completed by a clinician; the 5-item CGI scale pertaining to therapeutic effect completed by the subject; the Insomnia Severity Index (ISI) completed by the subject, and a subjective assessment of sTST, LSO, and sleep quality collected through the IVRS.
Clinical Global Impressions (CGI) ns (CGI) consist of two questions addressed to the clinician relating to the severity of illness and therapeutic effect of the study drug and five questions addressed to the patient relating to the therapeutic effect of the drug.

[2] = system: Adult Patients (Ages 18-64) with Primary Insomnia; assay: Subjective sleep parameters, adult crossover study (Example 3); format: in vivo, human; conditions: Per-Protocol N = 61
Text: The primary and secondary efficacy assessments were as described above in Example 1.

[3] = in vivo; cited from earlier work
[4] = system: primary elderly insomnia patients with sleep maintenance difficulties; format: in vivo, human
Procedure: Subjects were females and males, 65 years of age or older, with at least a 3-month history of primary insomnia (as defined in the Diagnostic and Statistical Manual of Mental Disorders, Fourth Edition, Text Revision), who reported experiencing at least 60 minutes of Wake After Sleep Onset (WASO), at least 30 minutes of Latency to Sleep Onset (LSO), and no more than 6.5 hours of Total Sleep Time (TST) on at least 4 of 7 consecutive nights prior to PSG Screening.
Primary Efficacy Variable: The primary efficacy variable was WASO on Night 1.
Additional PSG Variables: Additional efficacy variables assessed on each PSG recording night during the Double-blind Treatment Period were WASO (Night 15, Night 29, Night 57, and Night 85); WTDS; TST; Sleep Efficiency (SE) overall, by third of the night, the last quarter of the night, and hour of the night; LPS; Latency to Stage 2 Sleep; Number of Awakenings After Sleep Onset (NAASO) overall and by hour; Total Wake Time (TWT) overall and by hour; Wake Time After Sleep (WTAS); and sleep architecture (including percentage and minutes of Stage 1, 2, and 3-4 sleep; percentage and minutes of rapid eye movement [REM] and non-REM sleep; and Latency to REM Sleep.)

[5] = system: Adult Patients (Ages 18-64) with Primary Insomnia; assay: Adverse events and safety, adult crossover study (Example 3); format: in vivo, human
Procedure: A randomized, multi-center, double-blind, placebo-controlled, four-period crossover, dose-response study was designed to assess the effects of doxepin (1 mg, 3 mg and 6 mg) compared with placebo in patients with primary sleep maintenance insomnia.
Patients who qualified for study entry, based on the screening PSG assessments, were randomized to a treatment sequence using a Latin square design. A final study visit was performed for patients either after completion of the four treatment periods or upon discontinuation from the study. Efficacy assessments were made at each visit and safety assessments were performed throughout the study.
The main inclusion criteria were male and/or female patients, aged 18 to 64 years, in good general health with at least a 3-month history of DSM-IV-defined primary insomnia, reporting each of the following on four of seven nights prior to PSG screening: ≤6.5 hours of total sleep time (TST), ≥60 min of WASO and ≥20 min of LSO. Doxepin HCl 1 mg, 3 mg and 6 mg capsules, and placebo capsules, were provided as a single dose for oral administration.

CN(C)CCC=C1c2ccccc2COc2ccccc21 (mixture of isomers) [Doxepin]
mean CGI (clinician-rated) severity of illness and therapeutic effect scores compared with placebo ([1]; Night 85, both doxepin treatment groups (1 mg, 3 mg)): statistically significant improvements
CGI (subject-rated) scale of therapeutic effect, all five parameters, compared with placebo ([1]; after 85 nights of treatment, both doxepin groups (1 mg, 3 mg)): statistically significant improvements
LSO, Mean ([2]; 1 mg): 46.9 min
sTST, Mean ([2]; 1 mg): 364.2 min
sWASO, Mean ([2]; 1 mg): 56.1 min
LSO, Mean ([2]; 3 mg): 46.1 min
sTST, Mean ([2]; 3 mg): 379.7 min
sWASO, Mean ([2]; 3 mg): 50.5 min
LSO, Mean ([2]; 6 mg): 44.1 min
sTST, Mean ([2]; 6 mg): 383.0 min
sWASO, Mean ([2]; 6 mg): 42.1 min
mean half-life [3]: 17 h
LS mean WASO shorter compared with the placebo group ([4]; Night 1, 1 mg): 17.8 min
LPS, mean (SD) ([4]; Night 1, 1 mg, ITT N = 77): 38.8 (29.58) minutes
SE Overall, mean (SD) ([4]; Night 1, 1 mg, ITT N = 77): 74.8 (11.05) %
TST, mean (SD) ([4]; Night 1, 1 mg, ITT N = 77): 359.1 (53.05) minutes
WTAS, mean (SD) ([4]; Night 1, 1 mg, ITT N = 77): 8.9 (18.84) minutes
WASO, Diff. of LS Mean versus placebo ([4]; Night 1, 1 mg, ITT n = 77): -17.8 min
WASO, Mean (Primary Efficacy Variable) ([4]; Night 1, 1 mg, ITT n = 77): 91.8 min
LS mean WASO shorter compared with the placebo group ([4]; Night 1, 3 mg): 33.8 min
LPS, mean (SD) ([4]; Night 1, 3 mg, ITT N = 82): 28.6 (20.53) minutes
SE Overall, mean (SD) ([4]; Night 1, 3 mg, ITT N = 82): 79.8 (9.21) %
TST, mean (SD) ([4]; Night 1, 3 mg, ITT N = 82): 382.9 (44.23) minutes
WTAS, mean (SD) ([4]; Night 1, 3 mg, ITT N = 82): 4.7 (14.61) minutes
WASO, Diff. of LS Mean versus placebo ([4]; Night 1, 3 mg, ITT n = 82): -33.8 min
WASO, Mean (Primary Efficacy Variable) ([4]; Night 1, 3 mg, ITT n = 82): 74.5 min
LPS, mean (SD) ([4]; Night 85, 1 mg, ITT N = 77): 29.0 (26.45) minutes
SE Overall, mean (SD) ([4]; Night 85, 1 mg, ITT N = 77): 75.1 (9.83) %
TST, mean (SD) ([4]; Night 85, 1 mg, ITT N = 77): 360.5 (47.17) minutes
WTAS, mean (SD) ([4]; Night 85, 1 mg, ITT N = 77): 10.8 (21.78) minutes
WASO, Diff. of LS Mean versus placebo ([4]; Night 85, 1 mg, ITT n = 69): -14.6 min
WASO, Mean ([4]; Night 85, 1 mg, ITT n = 69): 97.0 min
LPS, mean (SD) ([4]; Night 85, 3 mg, ITT N = 82): 37.5 (32.74) minutes
SE Overall, mean (SD) ([4]; Night 85, 3 mg, ITT N = 82): 77.9 (8.80) %
TST, mean (SD) ([4]; Night 85, 3 mg, ITT N = 82): 373.7 (42.24) minutes
WTAS, mean (SD) ([4]; Night 85, 3 mg, ITT N = 82): 5.4 (13.20) minutes
WASO, Diff. of LS Mean versus placebo ([4]; Night 85, 3 mg, ITT n = 74): -33.2 min
WASO, Mean ([4]; Night 85, 3 mg, ITT n = 74): 75.7 min
HEADACHE: Number of Events ([5]; 1 mg, N = 66): 3
HEADACHE: Number of Patients ([5]; 1 mg, N = 66): 3 (5%)
NASAL CONGESTION: Number of Events ([5]; 1 mg, N = 66): 1
NASAL CONGESTION: Number of Patients ([5]; 1 mg, N = 66): 1 (2%)
HEADACHE: Number of Events ([5]; 3 mg, N = 66): 0
HEADACHE: Number of Patients ([5]; 3 mg, N = 66): 0 (0%)
NASAL CONGESTION: Number of Events ([5]; 3 mg, N = 66): 0
NASAL CONGESTION: Number of Patients ([5]; 3 mg, N = 66): 0 (0%)
HEADACHE: Number of Events ([5]; 6 mg, N = 67): 1
HEADACHE: Number of Patients ([5]; 6 mg, N = 67): 1 (1%)
NASAL CONGESTION: Number of Events ([5]; 6 mg, N = 67): 0
NASAL CONGESTION: Number of Patients ([5]; 6 mg, N = 67): 0 (0%)
